Results reported in the NIST ThermoML archive (doi:10.1021/je060271a).
Numbers after ± are expanded uncertainties.

Conditions: 283.15 K, Liquid, Vibrating tube method

CCCCCCCC(=O)OCC(COC(=O)CCCCCCC)(COC(=O)CCCCCCC)COC(=O)CCCCCCC [pentaerythritol tetraoctanoate]
Conditions	mass density [kg/m3]
24659 kPa	983.6 ± 1.2
24685 kPa	983.7 ± 1.2
24711 kPa	983.7 ± 1.2
24742 kPa	983.8 ± 1.2
24769 kPa	983.8 ± 1.2
24795 kPa	983.8 ± 1.2
24827 kPa	983.7 ± 1.2
24853 kPa	983.8 ± 1.2
24885 kPa	983.8 ± 1.2
24912 kPa	983.7 ± 1.2
24938 kPa	983.8 ± 1.2
24965 kPa	983.8 ± 1.2
24997 kPa	983.8 ± 1.2
25024 kPa	983.8 ± 1.2
25051 kPa	983.9 ± 1.2
25084 kPa	983.9 ± 1.2
25110 kPa	983.9 ± 1.2
25143 kPa	983.8 ± 1.2
25170 kPa	983.9 ± 1.2
25197 kPa	984 ± 1.2
25229 kPa	984 ± 1.2
25256 kPa	984 ± 1.2
25284 kPa	984 ± 1.2
25312 kPa	984 ± 1.2
25344 kPa	984 ± 1.2
25372 kPa	984 ± 1.2
25405 kPa	983.9 ± 1.2
25433 kPa	984.1 ± 1.2
25461 kPa	984.1 ± 1.2
25494 kPa	984.1 ± 1.2
25521 kPa	984.2 ± 1.2
25549 kPa	984.1 ± 1.2
25583 kPa	984.1 ± 1.2
25611 kPa	984.2 ± 1.2
25639 kPa	984.2 ± 1.2
25673 kPa	984.2 ± 1.2
25701 kPa	984.1 ± 1.2
25730 kPa	984.4 ± 1.2
25758 kPa	984.3 ± 1.2
25792 kPa	984.2 ± 1.2
25821 kPa	984.3 ± 1.2
25850 kPa	984.3 ± 1.2
25884 kPa	984.3 ± 1.2
25912 kPa	984.3 ± 1.2
25941 kPa	984.2 ± 1.2
25976 kPa	984.3 ± 1.2
26004 kPa	984.3 ± 1.2
26034 kPa	984.5 ± 1.2
26069 kPa	984.4 ± 1.2
26098 kPa	984.3 ± 1.2
26126 kPa	984.4 ± 1.2
26162 kPa	984.4 ± 1.2
26191 kPa	984.5 ± 1.2
26220 kPa	984.4 ± 1.2
26250 kPa	984.4 ± 1.2
26286 kPa	984.5 ± 1.2
26315 kPa	984.5 ± 1.2
26350 kPa	984.6 ± 1.2
26380 kPa	984.6 ± 1.2
26411 kPa	984.6 ± 1.2
26442 kPa	984.6 ± 1.2
26478 kPa	984.6 ± 1.2
26508 kPa	984.6 ± 1.2
26538 kPa	984.6 ± 1.2
26568 kPa	984.6 ± 1.2
26604 kPa	984.5 ± 1.2
26634 kPa	984.6 ± 1.2
26666 kPa	984.6 ± 1.2
26702 kPa	984.7 ± 1.2
26733 kPa	984.7 ± 1.2
26770 kPa	984.7 ± 1.2
26802 kPa	984.7 ± 1.2
26834 kPa	984.8 ± 1.2
26866 kPa	984.8 ± 1.2
26897 kPa	984.8 ± 1.2
26929 kPa	984.9 ± 1.2
26966 kPa	984.8 ± 1.2
26997 kPa	984.8 ± 1.2
27034 kPa	984.8 ± 1.2
27066 kPa	984.8 ± 1.2
27098 kPa	984.9 ± 1.2
27129 kPa	984.9 ± 1.2
27167 kPa	984.9 ± 1.2
27199 kPa	985 ± 1.2
27237 kPa	985.1 ± 1.2
27270 kPa	984.9 ± 1.2
27302 kPa	985.1 ± 1.2
27340 kPa	985.1 ± 1.2
27372 kPa	985 ± 1.2
27404 kPa	985 ± 1.2
27437 kPa	985 ± 1.2
27476 kPa	985.2 ± 1.2
27508 kPa	985.2 ± 1.2
27546 kPa	985.1 ± 1.2
27579 kPa	985.1 ± 1.2
27612 kPa	985.2 ± 1.2
27651 kPa	985.2 ± 1.2
27685 kPa	985.1 ± 1.2
27718 kPa	985.1 ± 1.2
27752 kPa	985.1 ± 1.2
27792 kPa	985.2 ± 1.3
27825 kPa	985.3 ± 1.2
27859 kPa	985.3 ± 1.2
27899 kPa	985.3 ± 1.2
27932 kPa	985.4 ± 1.2
27972 kPa	985.3 ± 1.2
28007 kPa	985.3 ± 1.2
28040 kPa	985.5 ± 1.2
28074 kPa	985.5 ± 1.2
28116 kPa	985.4 ± 1.2
28150 kPa	985.5 ± 1.2
28185 kPa	985.4 ± 1.2
28226 kPa	985.4 ± 1.2
28260 kPa	985.5 ± 1.2
28302 kPa	985.5 ± 1.2
28336 kPa	985.5 ± 1.2
28371 kPa	985.5 ± 1.2
28406 kPa	985.5 ± 1.2
28448 kPa	985.5 ± 1.2
28483 kPa	985.6 ± 1.2
28519 kPa	985.5 ± 1.3
28561 kPa	985.6 ± 1.2
28596 kPa	985.7 ± 1.2
28632 kPa	985.7 ± 1.2
28676 kPa	985.6 ± 1.2
28712 kPa	985.7 ± 1.2
28748 kPa	985.8 ± 1.2
28784 kPa	985.6 ± 1.2
28827 kPa	985.7 ± 1.2
28863 kPa	985.8 ± 1.2
28900 kPa	985.8 ± 1.2
28943 kPa	985.7 ± 1.2
28980 kPa	985.8 ± 1.2
29017 kPa	985.8 ± 1.2
29061 kPa	985.9 ± 1.2
29097 kPa	985.9 ± 1.2
29135 kPa	985.9 ± 1.2
29173 kPa	985.9 ± 1.2
29217 kPa	985.8 ± 1.2
29255 kPa	985.9 ± 1.2
29293 kPa	986 ± 1.2
29338 kPa	986 ± 1.2
29375 kPa	986 ± 1.2
29413 kPa	986.1 ± 1.2
29458 kPa	986 ± 1.2
29496 kPa	986 ± 1.2
29534 kPa	986.1 ± 1.2
29579 kPa	986.1 ± 1.2
